Assay results taken from paper PMC10377586 (Biomolecules, 2023).

Experiments:
[1] = molecular target: T1, human A2B (hA2B) ARs (Homo sapiens, UniProt P29275); test: Radioligand binding [3H]PSB-603, CHO cell membranes; settings: for Ki: CHO cell membranes, read-out: hA2B [3H]PSB-603 Ki ± SEM; for inhibition at 1 µM: read-out: hA2B [3H]PSB-603 % inhibition ± SEM at 1 µM
T1 construct: expressed in transfected cells; host or cells: CHO cells (membranes)
T1 sequence (P29275 1-332): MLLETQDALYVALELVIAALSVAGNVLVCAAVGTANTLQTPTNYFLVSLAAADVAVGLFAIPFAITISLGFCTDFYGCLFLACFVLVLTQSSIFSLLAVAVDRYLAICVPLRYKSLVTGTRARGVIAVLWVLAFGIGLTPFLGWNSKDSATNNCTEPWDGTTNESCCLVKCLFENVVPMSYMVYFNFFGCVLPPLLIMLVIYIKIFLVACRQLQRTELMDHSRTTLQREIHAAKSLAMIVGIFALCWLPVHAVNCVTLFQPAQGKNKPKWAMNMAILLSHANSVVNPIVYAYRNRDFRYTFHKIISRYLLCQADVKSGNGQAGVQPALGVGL
Protocol: The final compounds were tested in radioligand binding assays to evaluate their affinity for all four ARs subtypes (see Table 2). Rat brain cortical membrane preparations were used as a source of rat A1 (rA1) ARs, and rat brain striatal membrane preparations served as a source of rat A2A (rA2A) ARs. For A2B- and A3AR assays, membrane preparations of Chinese hamster ovary (CHO) cells recombinantly expressing either human A2B (hA2B) or human A3 (hA3) ARs were employed.
Adenosine receptor radioligand binding assays were performed as previously described using rat brain cortical membrane preparations for A1 and rat brain striatal membrane preparations for A2A AR assays. Frozen rat brains (unstripped) were obtained from Pel Freez, Rogers, AR, USA. For assays at human AR subtypes, cell membranes of CHO cells recombinantly expressing the respective receptor were used. The following compounds were employed as radioligands: A1: [^3H]2-chloro-N^6-cyclopentyladenosine ([^3H]CCPA); A2A: [^3H]3-(3-hydroxypropyl)-7-methyl-8-(m-methoxystyryl)-1-propargylxanthine ([^3H]MSX-2); A2B: [^3H]8-(4-(4-(4-chlorophenyl)piperazine-1-sulfonyl)phenyl)-1-propylxanthine ([^3H]PSB-603); A3: [^3H]phenyl-8-ethyl-4-methyl-(8R)-4,5,7,8-tetrahydro-1H-imidazo[2,1-i]purine-5-one ([^3H]PSB-11). Initially, a single high concentration of compound was tested (1 µM). For potent compounds, full concentration–inhibition curves were determined using six to ten different concentrations of test compound spanning three orders of magnitude. At least three independent experiments were performed. Data were analyzed using GraphPad PRISM program version 4.0 or higher (Graph Pad, San Diego, CA, USA).

[2] = molecular target: T2, rat D1 receptor (Rattus norvegicus, UniProt P18901); test: Radioligand binding [3H]SCH23390, rat brain tissue; settings: for Ki: native rat D1 receptor, read-out: rD1 [3H]SCH23390 Ki ± SEM; for inhibition at 1 µM: read-out: rD1 [3H]SCH23390 % inhibition ± SEM at 1 µM
T2 construct: source of native rat D1 receptor protein; from tissue; host or cells: rat striatum (methods) / rat brain cortical membranes
T2 sequence (P18901 whole entry): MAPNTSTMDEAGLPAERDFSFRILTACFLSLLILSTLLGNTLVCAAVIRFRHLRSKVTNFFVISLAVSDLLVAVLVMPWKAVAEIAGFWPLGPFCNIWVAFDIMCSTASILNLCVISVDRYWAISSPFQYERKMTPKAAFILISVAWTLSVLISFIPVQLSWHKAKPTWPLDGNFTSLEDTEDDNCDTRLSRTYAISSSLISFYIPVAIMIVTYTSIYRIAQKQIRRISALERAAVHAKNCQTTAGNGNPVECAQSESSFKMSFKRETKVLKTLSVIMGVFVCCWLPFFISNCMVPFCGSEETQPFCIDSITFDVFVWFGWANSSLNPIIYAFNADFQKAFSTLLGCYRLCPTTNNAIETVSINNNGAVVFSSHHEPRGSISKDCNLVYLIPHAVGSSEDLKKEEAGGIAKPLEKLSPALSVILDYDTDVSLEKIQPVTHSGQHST
Protocol: Rat brain cortical membranes were used as source of native rat D1 receptor protein, and human D2 receptor was recombinantly expressed in HEK293 cells.
Rat striatum tissue was thawed in 50 volumes of ice-cold 50 mM potassium phosphate buffer, pH 7.4, homogenized and centrifuged at 20,000× g for 20 min. The resulting pellet was resuspended in the same quantity of the buffer and centrifuged again for 20 min. Binding experiments were conducted in 96-well microplates in a total volume of 250 μL of appropriate buffers. Reaction mix included 50 μL solution of test compound, 50 μL of radioligand, and 150 μL of tissue suspension (3 mg/mL). [^3H]SCH23390 (spec. act. 81.9 Ci/mmol, PerkinElmer, NET 930) was used for labeling the D1-receptor. For measuring unspecific binding, cis(Z)flupentixol—5 μM was applied. Samples were incubated at 30 °C for 60 min. The incubation was terminated by rapid filtration over glass fiber filters GF/B using a Harvester (PerkinElmer, USA). The radioactivity was measured in MicroBeta TriLux 1450—liquid scintillation counter (PerkinElmer). Each compound was tested in a screening assay in duplicate at final concentrations of 1 µM. Results were expressed as a percent of inhibition of specific binding.

[3] = molecular target: T3, human PDE4B1 (Homo sapiens, UniProt Q07343); test: PDElight HTS cAMP phosphodiesterase assay, PDE4B1; assay type: biochemical; settings: for IC50: read-out: PDE 4B1 IC50 ± SEM; for inhibition at 10 µM: read-out: PDE 4B1 % Inhibition ± SEM at 10 µM
T3 construct: purchased BPS Biosciences
T3 sequence (Q07343 whole entry): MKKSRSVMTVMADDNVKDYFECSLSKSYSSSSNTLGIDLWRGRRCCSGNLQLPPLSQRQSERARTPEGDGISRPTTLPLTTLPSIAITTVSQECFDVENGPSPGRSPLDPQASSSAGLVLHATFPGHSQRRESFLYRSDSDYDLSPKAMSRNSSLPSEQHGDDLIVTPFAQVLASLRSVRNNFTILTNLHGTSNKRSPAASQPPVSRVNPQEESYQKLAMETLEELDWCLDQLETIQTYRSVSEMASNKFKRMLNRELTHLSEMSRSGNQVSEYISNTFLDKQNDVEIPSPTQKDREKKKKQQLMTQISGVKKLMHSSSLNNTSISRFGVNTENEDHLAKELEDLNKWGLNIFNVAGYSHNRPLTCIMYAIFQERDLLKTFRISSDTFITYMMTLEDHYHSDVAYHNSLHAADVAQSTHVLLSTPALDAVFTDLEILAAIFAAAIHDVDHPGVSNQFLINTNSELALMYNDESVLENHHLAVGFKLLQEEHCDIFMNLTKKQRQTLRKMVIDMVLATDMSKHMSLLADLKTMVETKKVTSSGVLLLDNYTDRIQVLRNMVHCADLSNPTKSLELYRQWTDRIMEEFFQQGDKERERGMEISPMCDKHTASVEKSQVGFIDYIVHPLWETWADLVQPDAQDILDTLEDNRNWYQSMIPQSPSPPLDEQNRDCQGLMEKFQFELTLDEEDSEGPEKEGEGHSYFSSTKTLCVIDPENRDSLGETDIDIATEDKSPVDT
Protocol: Further biological evaluation of the presented compound library was performed determining inhibitory potencies against selected human PDE isoforms, namely, PDE4 and PDE10 (for results see Table 3).
Tested and reference compounds were dissolved in dimethyl sulfoxide (DMSO) at a concentration of 10 mM and further diluted in assay buffer (10 mM Tris-HCl, 10 mM magnesium chloride and 0.05% Tween-20; pH 7.4). Inhibition of human PDE10A and 4B1 was measured using PDElight HTS cAMP phosphodiesterase assay kit (Lonza, Basel, Switzerland) according to manufacturer’s recommendations. Then, 10 ng of PDE10A and 5 ng of PDE4B1 (BPS Biosciences, San Diego, CA, USA) in appropriate buffer was incubated with reference and tested compound for 20 min. […] Then PDELight AMP Detection Reagent was added and incubated 10 min. All reactions were carried out at 37 °C in 96 white-walled, half-area-well plates (PerkinElmer). Luminescence was measured in a multifunction plate reader (POLARstar Omega, BMG Labtech, Ortenberg, Germany). The percentage of inhibition and IC50s were computed using GraphPad Prism Version 6.0 software.

| SMILES | Ki [1] [nM] | inhibition at 1 µM [1] [%] | Ki [2] [nM] | inhibition at 1 µM [2] [%] | IC50 [3] [nM] | inhibition at 10 µM [3] [%] |
| --- | --- | --- | --- | --- | --- | --- |
| Cn1c(=O)c2c(nc(NCCc3ccc(O)c(O)c3)n2C)n(C)c1=O [Compound 11a, 8-((3,4-Dihydroxyphenethyl)amino)-1,3,7-trimethyl-3,7-dihydro-1H-purine-2,6-dione] | > 1000 | 20 | > 1000 | 13 | 7850 ± 1850 |  |
| CCn1c(NCCc2ccc(O)c(O)c2)nc2c1c(=O)n(C)c(=O)n2C [Compound 11b, 8-((3,4-Dihydroxyphenethyl)amino)-7-ethyl-1,3-dimethyl-3,7-dihydro-1H-purine-2,6-dione] | > 1000 | -2 | > 1000 | 15 | 2520 ± 140 |  |
| CCCn1c(NCCc2ccc(O)c(O)c2)nc2c1c(=O)n(C)c(=O)n2C [Compound 11c, 8-((3,4-Dihydroxyphenethyl)amino)-1,3-dimethyl-7-propyl-3,7-dihydro-1H-purine-2,6-dione] | > 1000 | 6 | > 1000 | 9 | 3320 ± 800 |  |
| CC(C)n1c(NCCc2ccc(O)c(O)c2)nc2c1c(=O)n(C)c(=O)n2C [Compound 11d, 8-((3,4-Dihydroxyphenethyl)amino)-7-isopropyl-1,3-dimethyl-3,7-dihydro-1H-purine-2,6-dione] | > 1000 | 13 | > 1000 | 15 | 2440 ± 800 |  |
| CCCCn1c(NCCc2ccc(O)c(O)c2)nc2c1c(=O)n(C)c(=O)n2C [Compound 11e, 7-Butyl-8-((3,4-dihydroxyphenethyl)amino)-1,3-dimethyl-3,7-dihydro-1H-purine-2,6-dione] | > 1000 | 14 | > 1000 | 13 | 3160 ± 530 |  |
| CC(C)Cn1c(NCCc2ccc(O)c(O)c2)nc2c1c(=O)n(C)c(=O)n2C [Compound 11f, 8-((3,4-Dihydroxyphenethyl)amino)-7-isobutyl-1,3-dimethyl-3,7-dihydro-1H-purine-2,6-dione] | > 1000 | 1 | > 1000 | 15 | 3760 ± 160 |  |
| CCC(C)n1c(NCCc2ccc(O)c(O)c2)nc2c1c(=O)n(C)c(=O)n2C (centres unmarked) [Compound 11g, 7-(Sec-butyl)-8-((3,4-dihydroxyphenethyl)amino)-1,3-dimethyl-3,7-dihydro-1H-purine-2,6-dione] | > 1000 | -5 | > 1000 | 11 | 4410 ± 230 |  |
| CCCCCn1c(NCCc2ccc(O)c(O)c2)nc2c1c(=O)n(C)c(=O)n2C [Compound 11h, 8-((3,4-Dihydroxyphenethyl)amino)-1,3-dimethyl-7-pentyl-3,7-dihydro-1H-purine-2,6-dione] | > 1000 | 12 | > 1000 | 12 | 4430 ± 250 |  |
| CCCCCCn1c(NCCc2ccc(O)c(O)c2)nc2c1c(=O)n(C)c(=O)n2C [Compound 11i, 8-((3,4-Dihydroxyphenethyl)amino)-7-hexyl-1,3-dimethyl-3,7-dihydro-1H-purine-2,6-dione] | > 1000 | 31 | > 1000 | 9 | > 10000 | 42 |
| Cn1c(=O)c2c(nc(NCCc3ccc(O)c(O)c3)n2Cc2ccccc2)n(C)c1=O [Compound 11j, 7-Benzyl-8-((3,4-dihydroxyphenethyl)amino)-1,3-dimethyl-3,7-dihydro-1H-purine-2,6-dione] | > 1000 | 31 | > 1000 | 3 | 3290 ± 540 |  |
| Cn1c(=O)c2c(nc(NCCc3ccc(O)c(O)c3)n2CCc2ccccc2)n(C)c1=O [Compound 11k, 8-((3,4-Dihydroxyphenethyl)amino)-1,3-dimethyl-7-phenethyl-3,7-dihydro-1H-purine-2,6-dione] | > 1000 | -9 | > 1000 | 6 | 4400 ± 540 |  |
| Cn1c(=O)c2c(nc(NCCc3ccc(O)c(O)c3)n2CCOc2ccccc2)n(C)c1=O [Compound 11l, 8-((3,4-Dihydroxyphenethyl)amino)-1,3-dimethyl-7-(2-phenoxyethyl)-3,7-dihydro-1H-purine-2,6-dione] | > 1000 | 22 | > 1000 | 3 | > 10000 | 20 |
| CCCn1c(=O)c2c(nc(NCCc3ccc(O)c(O)c3)n2CCC)n(CCC)c1=O [Compound 12, 8-((3,4-Dihydroxyphenethyl)amino)-1,3,7-tripropyl-3,7-dihydro-1H-purine-2,6-dione] | > 1000 | 34 | > 1000 | 9 | 14500 ± 480 |  |
| CCCCn1c(=O)c2c(nc(NCCc3ccc(O)c(O)c3)n2CCC)n(CCCC)c1=O [Compound 13, 1,3-Dibutyl-8-((3,4-dihydroxyphenethyl)amino)-7-propyl-3,7-dihydro-1H-purine-2,6-dione] | > 1000 | 31 | > 1000 | 2 | > 10000 | 28 |
| Cn1c(=O)c2c(nc3n2CCCN3CCc2ccc(O)c(O)c2)n(C)c1=O [Compound 20a, 9-(3,4-Dihydroxyphenethyl)-1,3-dimethyl-6,7,8,9-tetrahydropyrimido[2,1-f]purine-2,4(1H,3H)-dione] | > 1000 | 13 | > 1000 | 15 | > 10000 | 44 |
| Cn1c(=O)c2c(nc3n2CCCCN3CCc2ccc(O)c(O)c2)n(C)c1=O [Compound 20b, 10-(3,4-Dihydroxyphenethyl)-1,3-dimethyl-7,8,9,10-tetrahydro-1H-[1, 3]diazepino[2,1-f]purine-2,4(3H,6H)-dione] | > 1000 | 6 | > 1000 | 15 | > 10000 | 45 |
| CCCn1c(=O)c2c(nc3n2CCCN3CCc2ccc(O)c(O)c2)n(CCC)c1=O [Compound 21, 9-(3,4-Dihydroxyphenethyl)-1,3-dipropyl-6,7,8,9-tetrahydropyrimido[2,1-f]purine-2,4(1H,3H)-dione] | 371 ± 23 |  | > 1000 | 12 | 16500 ± 320 |  |
